Measured values published in patent US20050130893A1, “Use of opioids in prevention of and recovery from a stress-induced crash in blood pressure” (priority 2003, published 2005).
Several values for one entry are separate records, joined by “and”; a condition that tells them apart may be missing. Equal values may be shown once.

Key:
[1] = tested on: heat shock; experiment: Heat shock by 1 hour exposure in incubator at 44° C, sensitivity to heat; assay type: in vivo, rat; conditions: for Sensitization to heat: male rats, pretreatment; for Protection against heat, earlier work: males
Excerpt: The present invention centers on the concept of using opioids as a protective agent against heat shock. Earlier work studied how two opioids, deltorphin D and DADLE would affect molecular stress response to heat and survival. […] The current study focused on the use of deltorphin D to protect against heat stroke by administration before, after, or before and after, heat stroke. Heat stroke is defined as a rapid rise in blood pressure followed by a crash in pressure in response to overheating.
(§1) The subjects were male and female Charles River rats. The rats were divided by sex and by treatment groups. There were four treatment groups: control saline treatment, heat shock-saline treatment, heat shock-DADLE treatment, and heat shock-deltorphin-D treatment. The rats underwent a three-day protocol, receiving injections each day and on the final day undergoing heat shock. The final treatment was given on day three of the experiment, 20 minutes before heat shock. Treatment consisted of intravenous tail injections at 1 mg/kg body weight for all groups. Heat shock was initiated by 1 hour exposure in an incubator at 44° C. The rats were sacrificed 2 hours later and alteration of molecular responses monitored by gel electrophoresis of RNA using Northern blots. DNA sequences for the molecular markers HSP70 and ubiquitin were used to probe the blots. The probes were radioactively labeled with p^32 to label the probe. When the probe “finds” its complementary sequence, it binds to it and the intensity of the signal which results is determined using Molecular Analyst software of the signals on X-ray film. The intensity of the black areas on the film is a measure of gene activity altered by treatment with the respective opioids.

[2] = tested on: HSP70; experiment: Northern blot of HSP70 mRNA in tissues after heat shock with opioid pretreatment; assay type: in vivo, rat; conditions: heat shock 1 h 44° C
Description: (§2) Experiments were undertaken to study the molecular stress response after heat stress with and without opiate pretreatment in rats. Since it is know that both behavior and pain response to opiates are gender-dependent, both male and female rats were used. The animals were treated by exposure to dry heat at a colonic temperature of 44° C. The animals were sacrificed and brain, leg and heart tissue was removed. The molecular stress responses chosen were HSP 70 and ubiquitin. HSP 70 is a chaperone protein which helps repair damaged proteins, and UbB and UbC forms of ubiquitin are induced by cell damage. Messenger RNA was extracted and analyzed using Northern Blot determination of transcript intensity in saline heat shock controls versus pretreatment with DADLE, a non-specific delta opioid agonist, and deltorphin D.
as §1

[3] = tested on: HSP 70 and ubiquitin; experiment: Molecular stress response (HSP 70 and ubiquitin) after heat stress, overall; assay type: in vivo, rat; conditions: pretreatment before heat shock; drug-unique patterns
Description: as §2
The subjects were male and female Charles River rats. The rats were divided by sex and by treatment groups. […] The rats were sacrificed 2 hours later and alteration of molecular responses monitored by gel electrophoresis of RNA using Northern blots. […] When the probe “finds” its complementary sequence, it binds to it and the intensity of the signal which results is determined using Molecular Analyst software of the signals on X-ray film. […]

[4] = Change in body core temperature with injections; assay type: in vivo, rat; conditions: for Effect on body temperature, earlier work: males
[5] = tested on: UbC; experiment: Northern blot of UbC mRNA in tissues after heat shock with opioid pretreatment; assay type: in vivo, rat; conditions: heat shock 1 h 44° C
Description: as §2, §1

[6] = Change in body core temperature with injections; assay type: in vivo, rat; conditions: for Changes in Body Temperature, Temperature Day 1 / Changes in Body Temperature, Temperature Day 2: individual animals, 1 mg/kg i.v. tail injection, 1 mg/kg; for Effect on body temperature: summary of Table 3
Description: as §1

[7] = tested on: UbB; experiment: Northern blot of UbB mRNA in tissues after heat shock with opioid pretreatment; assay type: in vivo, rat; conditions: heat shock 1 h 44° C
Description: as §2, §1

[8] = tested on: hemorrhagic shock; conditions: cited from earlier work
[9] = tested on: cerebral ischemia; conditions: ischemia in mammals; cited from earlier work
[10] = tested on: heat stroke; experiment: Heat stroke induced by heating blanket in ketamine-anesthetized male rats; assay type: in vivo, rat; conditions: for Body temperature at blood pressure crash (onset of heat stroke): blanket 51.5° C.
Description: Male rats were used in the study. The first rat weighed approximately 500 g and was anesthetized with ketamine and then wrapped in a heating blanket to raise its body temperature and induce heat stroke. The temperature and blood pressure of the anesthetized rat was monitored with a recording colonic temperature probe and a tail blood pressure cuff. When the symptoms of heat stroke were observed, 1.8 ml of 1.0 mg/ml pure deltorphin D was administered in the tail vein. The amount of deltorphin administered was based on the earlier hemorrhagic studies of Dr. Oeltgrn.
The second male rat was catherized with an arterial line two weeks previous to the next experiment to provide a means for more rapidly providing the deltorphin. The second rat weighed approximately 500 g and was anesthetized with ketamine and then wrapped in a heating blanket set at 51.5° C. to raise its body temperature and induce heat stroke. Prior to being wrapped in the heating blanket, a pre-treatment injection of 1.8 ml of 1.0 mg/ml pure deltorphin was provided through the catheter. The temperature and blood pressure of the anesthetized rat was monitored with a recording colonic temperature probe and blood pressure was monitored and recorded off of the arterial line. […] One hour later, another 1.8 ml of 1.0 mg/ml pure deltorphin was administered through the catheter. At that time, the rat was having difficulty moving.
A third male rat weighing approximately 200 g was catherized with an arterial line the day before the test. The third rat was anesthetized with ketamine and then wrapped in a heating blanket set at 51.5° C. to raise its body temperature and induce heat stroke. Prior to being wrapped in the heating blanket, a pre-treatment injection of 0.7 ml of 1.0 mg/ml pure deltorphin was provided through the catheter. The temperature and blood pressure of the anesthetized rat was monitored with a recording colonic temperature probe and blood pressure was monitored and recorded off of the arterial line. […] Fifteen minutes later, another 0.7 ml of 1.0 mg/ml pure deltorphin was administered through the catheter. The rat died approximately 75 minutes after the onset of heat stroke. […] Nonetheless, the third animal lived for 75 minutes. This survival rate is long when compared to the study reported at Chi WT, Kao TY, Lin MT. Neurosci Res. 1996 24:159-163 wherein rats in which heat stroke was induced lived only about 17 minutes after the onset of heat stroke and continuous perfusion of the animals with saline did nothing to extend their survival.

[11] = Female Brain, 1 mg/kg i.v. tail injections over 3 days, sacrificed 2 hours later
[12] = Male rats, individual animals, 1 mg/kg i.v. tail injection, 1 mg/kg
[13] = second rat, 1.8 ml of 1.0 mg/ml before heating and one hour after onset, through catheter

Molecule	Sensitization to heat [1]	Protection against heat, earlier work [1]	HSP measurement (Northern blot transcript intensity) [2, 11]	HSP measurement (Northern blot transcript intensity) ([2]; Female Heart, 1 mg/kg i.v.)	HSP measurement (Northern blot transcript intensity) ([2]; Female Leg, 1 mg/kg i.v.)	HSP measurement (Northern blot transcript intensity) ([2]; Male Brain, 1 mg/kg i.v.)	HSP measurement (Northern blot transcript intensity) ([2]; Male Heart, 1 mg/kg i.v.)	HSP measurement (Northern blot transcript intensity) ([2]; Male Leg, 1 mg/kg i.v.)	Alteration of the molecular stress response [3]	Effect on body temperature, earlier work [4]	UBC measurement (Northern blot transcript intensity) [5, 11]	UBC measurement (Northern blot transcript intensity) ([5]; Female Heart, 1 mg/kg i.v.)	UBC measurement (Northern blot transcript intensity) ([5]; Female Leg, 1 mg/kg i.v.)	UBC measurement (Northern blot transcript intensity) ([5]; Male Brain, 1 mg/kg i.v.)	UBC measurement (Northern blot transcript intensity) ([5]; Male Heart, 1 mg/kg i.v.)	UBC measurement (Northern blot transcript intensity) ([5]; Male Leg, 1 mg/kg i.v.)	Changes in Body Temperature, Temperature Day 1 ([6]; Female rats)	Changes in Body Temperature, Temperature Day 2 ([6]; Female rats)	Effect on body temperature [6]	UBB measurement (Northern blot transcript intensity) [7, 11]	also measured
CC(C)C[C@@H](NC(=O)[C@H](Cc1ccccc1)NC(=O)CNC(=O)[C@@H](C)NC(=O)[C@@H](N)Cc1ccc(O)cc1)C(=O)O [DADLE, [D-Ala2-D-Leu5]enkephalin acetate (Tyr-D-Ala-Gly-Phe-D-Leu), reference compound]	sensitized male rats to heat	did not show these effects	1.295	0.8958	0.884	1.391	0.5364	0.3294	significant (p<0.05) alteration of the molecular stress response	did not show these effects	0.7993	0.5605	0.8995	2.356	0.5837	0.18	−2.4 and 0.45 and −1.85 and −0.85	−3.45 and −1.65 and −1.45 and −0.35	raises body temperature	1.688	Changes in Body Temperature, Temperature Day 1 [4, 12]: 2.36 and 1.82; Changes in Body Temperature, Temperature Day 2 [4, 12]: 1.55 and 0.2; UBB measurement (Northern blot transcript intensity) ([7]; Female Heart, 1 mg/kg i.v.): 3.57; UBB measurement (Northern blot transcript intensity) ([7]; Female Leg, 1 mg/kg i.v.): 2.76; UBB measurement (Northern blot transcript intensity) ([7]; Male Brain, 1 mg/kg i.v.): 4.596; UBB measurement (Northern blot transcript intensity) ([7]; Male Heart, 1 mg/kg i.v.): 0.7754; UBB measurement (Northern blot transcript intensity) ([7]; Male Leg, 1 mg/kg i.v.): 0.6005; Effect on fallen mean arterial pressure ([8]; Summers et al. 2003): quickly reverses fallen mean arterial pressure; Survival of hemorrhagic shock ([8]; Summers et al. 2003): increase survival of hemorrhagic shock
Tyr-D-Ala-Phe-Ala-Asp-Val-Ala-Ser-Thr-Ile-Gly-Asp-Phe-Phe-His-Ser-Ile-NH2 (AFADVASTIGDFFHSI; N-terminal Tyr-D-, C-amide; printed: Ala-Phe-Ala-Asp-Val-Ala-Ser-Thr-Ile-Gly-Asp-Phe-Phe-His-Ser-Ile-) [deltorphin D, linear 17 amino acid opioid peptide synthesized on a commercial peptide synthesizer]	not	protective against heat	0.02634	1.27	0.9001	1.043	0.3697	0.6697	significant (p<0.05) alteration of the molecular stress response	lowered body temperature	0.7664	0.8595	0.2439	1.694	0.04345	0.1339	−0.7 (2×) and 0.2 and −1.6 and −1.5	−1.4 and −1.7 and −1.6 and −1.9 and −2.8	lowers body temperature significantly	2.844	Effect on neurological deficit and cerebral infarct volume [9]: decreasing neurological deficit and cerebral infarct volume; Survival after heat stroke ([10]; first rat, approx. 500 g, 1.8 ml of 1.0 mg/ml in the tail vein when symptoms of heat stroke were observed): survived only a few minutes; Body temperature at blood pressure crash (onset of heat stroke) ([10]; second rat, approx. 500 g, pre-treatment 1.8 ml of 1.0 mg/ml through arterial catheter): 41 °C; Ability to drink seven hours after the onset of heat stroke [10, 13]: able to drink 5 ml of water out of a pipette; Ability to move two hours after the onset of heat stroke [10, 13]: able to move some on its own; Survival after heat stroke [10, 13]: alive and healthy more than four weeks after the test; Survival time after the onset of heat stroke ([10]; third rat, approx. 200 g, 0.7 ml of 1.0 mg/ml before heating and fifteen minutes after onset, catheter installed the day before): approximately 75 minutes; Body temperature at blood pressure crash (onset of heat stroke) ([10]; third rat, approx. 200 g, pre-treatment 0.7 ml of 1.0 mg/ml through arterial catheter): 41 °C; Survival relative to expected time in the absence of deltorphin administration ([10]; third rat, compared with about 17 minutes in Chi et al. 1996): more than four times the expected time; Changes in Body Temperature, Temperature Day 1 ([6]; Male rats): −2.6 and −2.2 and −1.2 and −3.1; Changes in Body Temperature, Temperature Day 2 ([6]; Male rats): −2.9 and −1.4 and −0.7 and −2.2; UBB measurement (Northern blot transcript intensity) ([7]; Female Heart, 1 mg/kg i.v.): 2.845; UBB measurement (Northern blot transcript intensity) ([7]; Female Leg, 1 mg/kg i.v.): 2.803; UBB measurement (Northern blot transcript intensity) ([7]; Male Brain, 1 mg/kg i.v.): 2.259; UBB measurement (Northern blot transcript intensity) ([7]; Male Heart, 1 mg/kg i.v.): 0.5613; UBB measurement (Northern blot transcript intensity) ([7]; Male Leg, 1 mg/kg i.v.): 2.319
[D-Ala2-MePhe4-Glyol]enkephalin [DAGO]	–	–	–	–	–	–	–	–	–	–	–	–	–	–	–	–	–	–	–	–	Restoration of mean arterial pressure after hemorrhage ([8]; bleeding non-lethal, Feuerstein et al. 1985): restore mean arterial pressure after hemorrhage
